Experimental data: patent publication US10683297B2 (Sunshine Lake Pharma Co., Ltd., priority 2017, dated 2020)
pIC50: −log10 of the molar value.

Columns and labels:
JAK1 (h) = target: T1, JAK1 (h) (Homo sapiens, UniProt P23458); test: JAK1 (h) kinase assay; type: biochemical; conditions: [γ-33P-ATP] 10 μM or KM values; 40 minutes at room temperature
T1 construct: purchased Millipore UK Ltd (assays performed there as a service)
Procedure: The above assay procedure can be used to determine the IC50 for inhibition and/or the inhibition constant, Ki. […] The IC50 value is estimated by preparing a 10 point curve using a ½ log dilution series (for example, a typical curve may be prepared using the following compound concentrations: 3 μM, 1 μM, 0.3 μM, 0.1 μM, 0.03 μM, 0.01 μM, 0.003 μM, 0.001 μM, 0.0003 μM and 0 μM).
JAK1 (h) is incubated with 20 mM Tris/HCl pH 7.5, 0.2 mM EDTA, 500 μM […], 10 mM MgAcetate and [γ-^33P-ATP] […] The reaction is initiated by the addition of the MgATP mix. After incubation for 40 minutes at room temperature, the reaction is stopped by the addition of 3% phosphoric acid solution. 10 μL of the reaction is then spotted onto a P30 filtermat and washed three times for 5 minutes in 75 mM phosphoric acid and once in methanol prior to drying and scintillation counting.
The kinase assays described herein were performed at Millipore UK Ltd, Dundee Technology Park, Dundee DD2 1SW, UK.

[1] = Pharmacokinetics after intravenous and oral administration in rats; type: in vivo; conditions: for Clearance (CL) after iv dosing / AUC(0-t) / half-life / Vd: dose 1 mg/kg (Ex. 9: 0.6, Ex. 18: 0.5, Ex. 50: 0.96 mg/kg), iv dosing; for AUC(0-t) / half-life / Vd / bioavailability: rat, plasma; for Vd: read-out: Vss; for bioavailability: oral (generally 5 or 10 mg/kg) versus iv dosing, read-out: F (oral bioavailability)
Procedure: (§1) The LC/MS/MS system used in the analysis consists of an Agilent 1200 Series vacuum degasser, binary pump, well-plate autosampler, thermostatted column compartment, the Agilent G6430 Triple Quadrupole Mass Spectrometer with an electrosprayionization (ESI) source. Quantitative analysis was carried out using MRM mode. The parameters for MRM transitions are in the Table A.
(§2) An Agilent XDB-C18, 2.1×30 mm, 3.5 μM column was used for the analysis. 5 μL of the samples were injected. Analysis condition: The mobile phase was 0.1% formic acid in water (A) and 0.1% formic acid in methanol (B). The flow rate was 0.4 mL/min. And the gradient of Mobile phase was in the Table B.
(§3) Alternatively, an Agilent 6330 series LC/MS/MS spectrometer equipped with G1312A binary pumps, a G1367A autosampler and a G1314C UV detector were used in the analysis. An ESI source was used on the LC/MS/MS spectrometer. The analysis was done in positive ion mode as appropriate and the MRM transition for each analyte was optimized using standard solution. A Capcell MP-C18 100×4.6 mm I.D., 5 uM column (Phenomenex, Torrance, Calif., USA) was used during the analysis. The mobile phase was 5 mM ammonia acetate, 0.1% MeOH in water (A): 5 mM ammonia acetate, 0.1% MeOH in acetonitrile (B) (70/30, v/v). The flow rate was 0.6 mL/min. Column was maintained at ambient temperature. 20 μL of the samples were injected.
The compounds disclosed herein are assessed in pharmacokinetic studies in mice, rats, dogs or monkeys. The compounds are administered as a water solution, 2% HPMC+1% TWEEN®80 in water solution, 5% DMSO+5% solutol in saline, 4% MC suspension or capsule. For the intravenous administration, the animals are generally given at about 0.5, 0.6, 1 or 2 mg/kg dose. For the oral (p.o.) dosing, mice and rats are generally given 5 or 10 mg/kg dose, and dogs and monkeys are generally given 10 mg/kg dose. The blood samples (0.3 mL) are drawn at 0.25, 0.5, 1.0, 2.0, 3.0, 4.0, 6.0, 8.0, 12 and 24 h time points or 0.083, 0.25, 0.5, 1.0, 2.0, 4.0, 6.0, 8.0 and 24 h time points and centrifuged at 3,000 or 4000 rpm for 2 to 10 min. The plasma solutions are collected, and stored at […] until analyzed by LC/MS/MS as described above.

[2] = Compound stability in human liver microsomes; type: in vitro ADME; conditions: for half-life at 5 μM: human liver microsomes 0.5 mg protein/mL, compound 5 μM, NADPH 1.0 mM, pH 7.4, 37° C., read-out: Human T1/2; for CLint scaled at 5 μM: liver microsomes, pH 7.4, in vivo CLint extrapolated from human liver microsome incubation
Procedure: as §1, §2, §3
(§4) Human or rat liver microsomes incubations were conducted in duplicate in polypropylene tubes. The typical incubation mixtures consisted of human or rat liver microsomes (0.5 mg protein/mL), compounds of interest (5 μM) and NADPH (1.0 mM) in a total volume of 200 μL potassium phosphate buffer (PBS, 100 mM, pH 7.4). Compounds were dissolved in DMSO and diluted with PBS such that the final concentration of DMSO was 0.05%. The enzymatic reactions were commenced with the addition of […] after a 3-min preincubation and incubated in a water bath open to the air at 37° C. Reactions were terminated at various time points (0, 5, 10, 15, 30, 60 min) by adding equal volume of ice-cold acetonitrile. The samples were stored at […] until LC/MS/MS assays.
(§5) The concentrations of compounds in the incubation mixtures of human or rat liver microsomes were determined by a LC/MS/MS method. The ranges of the linearity in the concentration range were determined for each tested compounds.
(§6) A parallel incubation was performed using denatured microsomes as the negative control, and reactions were terminated at various time points (0, 15, 60 min) after incubation at 37° C.
(§7) Dextromethorphan (70 μM) was selected as the positive control, and reactions were terminated at various time points (0, 5, 10, 15, 30, 60 min) after incubation at 37° C. Both positive and negative control samples were included in each assay to ensure the integrity of the microsomal incubation system.
(§8) The concentrations of compounds in human or rat liver microsome incubations were plotted as a percentage of the relevant zero time point control for each reaction. The in vivo CLint were extrapolated (ref.: Naritomi, Y.; Terashita, S.; Kimura, S.; Suzuki, A.; Kagayama, A.; and Sugiyama, Y.; Prediction of human hepatic clearance from in vivo animal experiments and in vitro metabolic studies with liver microsomes from animals and humans. Drug Metab. Dispos., 2001, 29: 1316-1324).

[3] = Compound stability in rat liver microsomes; type: in vitro ADME; conditions: for CLint scaled at 5 μM: liver microsomes, pH 7.4, in vivo CLint extrapolated from rat liver microsome incubation; for half-life at 5 μM: rat liver microsomes 0.5 mg protein/mL, compound 5 μM, NADPH 1.0 mM, pH 7.4, 37° C., read-out: Rat T1/2
Procedure: as §1, §2, §3, §4, §5, §6, §7, §8

T1 sequence (P23458 whole entry): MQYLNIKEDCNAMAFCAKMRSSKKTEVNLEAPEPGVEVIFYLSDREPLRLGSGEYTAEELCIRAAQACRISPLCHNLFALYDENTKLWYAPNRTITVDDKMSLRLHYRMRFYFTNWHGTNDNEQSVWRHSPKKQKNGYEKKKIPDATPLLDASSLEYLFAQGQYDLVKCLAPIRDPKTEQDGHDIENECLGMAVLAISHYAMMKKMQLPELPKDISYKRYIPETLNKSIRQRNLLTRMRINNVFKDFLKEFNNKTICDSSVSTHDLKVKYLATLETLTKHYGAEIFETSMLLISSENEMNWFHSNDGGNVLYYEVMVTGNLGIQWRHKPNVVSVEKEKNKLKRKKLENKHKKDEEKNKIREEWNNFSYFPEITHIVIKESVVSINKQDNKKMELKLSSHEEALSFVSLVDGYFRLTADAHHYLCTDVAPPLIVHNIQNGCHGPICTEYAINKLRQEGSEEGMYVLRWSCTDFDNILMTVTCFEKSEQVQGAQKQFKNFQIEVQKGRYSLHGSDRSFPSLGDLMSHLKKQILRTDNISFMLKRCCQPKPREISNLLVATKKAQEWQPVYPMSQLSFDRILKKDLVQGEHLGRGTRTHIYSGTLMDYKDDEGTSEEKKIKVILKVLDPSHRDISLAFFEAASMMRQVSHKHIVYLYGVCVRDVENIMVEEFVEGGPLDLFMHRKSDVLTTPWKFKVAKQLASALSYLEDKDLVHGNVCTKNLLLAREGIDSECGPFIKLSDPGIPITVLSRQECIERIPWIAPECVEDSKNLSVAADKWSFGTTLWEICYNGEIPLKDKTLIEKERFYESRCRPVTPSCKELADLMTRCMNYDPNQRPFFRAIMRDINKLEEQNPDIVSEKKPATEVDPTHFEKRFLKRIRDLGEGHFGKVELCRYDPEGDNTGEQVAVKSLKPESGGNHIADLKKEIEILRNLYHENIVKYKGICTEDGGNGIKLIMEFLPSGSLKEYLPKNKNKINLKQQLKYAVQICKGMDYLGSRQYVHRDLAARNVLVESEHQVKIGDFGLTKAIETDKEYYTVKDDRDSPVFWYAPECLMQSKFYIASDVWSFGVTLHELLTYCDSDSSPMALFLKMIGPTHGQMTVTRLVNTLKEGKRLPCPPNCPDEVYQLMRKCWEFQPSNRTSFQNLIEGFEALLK

pIC50 (JAK1 (h))	Clearance (CL) after iv dosing [1] [mL/min/kg]	AUC(0-t) [1] [ng·h/mL]	half-life [1] [min]	Vd [1] [L/kg]	bioavailability [1] [%]	half-life at 5 μM [2] [min]	CLint scaled at 5 μM [2] [mL/min/kg]	CLint scaled at 5 μM [3] [mL/min/kg]	half-life at 5 μM [3] [min]	Structure (SMILES)
9.52	–	–	–	–	–	–	–	–	–	Cc1nc2cc(Nc3ncc(Cl)c(NC4CCN(c5ccc(C#N)nn5)CC4)n3)ccn2c1C [Example 16, 6-(4-((5-chloro-2-((2,3-dimethylimidazo[1,2-a]pyridin-7-yl)amino)pyrimidin-4-yl)amino)piperidin-1-yl)pyridazine-3-carbonitrile]
–	22.3	751	39.6	1.16	38.5	43.9	39.6	76.8	32.4	Cc1c(Nc2ncc(Cl)c(NC3CCN(c4ccc(C#N)nn4)CC3)n2)ccn2c(C)cnc12 [Example 29, 6-(4-((5-chloro-2-((3,8-dimethylimidazo[1,2-a]pyridin-7-yl)amino)pyrimidin-4-yl)amino)piperidin-1-yl)pyridazine-3-carbonitrile]
–	10.5	1560	72	1.53	46.9	125	13.9	87.5	28.4	Cc1nc2ccc(Nc3ncc(Cl)c(NC4CCN(c5ccc(C#N)nn5)CC4)n3)cn2n1 [Example 34, 6-(4-((5-chloro-2-((2-methyl-[1,2,4]triazolo[1,5-a]pyridin-6-yl)amino)pyrimidin-4-yl)amino)piperidin-1-yl)pyridazine-3-carbonitrile]
–	5.33	3110	156	0.53	57.6	183	9.5	17.2	144	Cc1nc2cc(Nc3ncc(Cl)c(NC4CCN(c5ccc(C#N)nn5)CC4)n3)ccn2n1 [Example 35, 6-(4-((5-chloro-2-((2-methyl-[1,2,4]triazolo[1,5-a]pyridin-7-yl)amino)pyrimidin-4-yl)amino)piperidin-1-yl)pyridazine-3-carbonitrile]
–	10.8	1540	36	0.56	79.6	52.7	33	76.5	32.5	Cc1nc2cc(Nc3ncc(Cl)c(NC4CCN(c5ccc(C#N)nn5)CC4)n3)ccc2n1C [Example 49, 6-(4-((5-chloro-2-((1,2-dimethyl-1H-benzo[d]imidazol-5-yl)amino)pyrimidin-4-yl)amino)piperidin-1-yl)pyridazine-3-carbonitrile]
–	15.2	1090	51.6	0.96	34.1	47.8	36.4	85.1	29.2	CC(O)Cn1cnc2cc(Nc3ncc(Cl)c(NC4CCN(c5ccc(C#N)cn5)CC4)n3)cnc21 (centres unmarked) [Example 52, 6-(4-((5-chloro-2-((3-(2-hydroxypropyl)-3H-imidazo[4,5-b]pyridin-6-yl)amino)pyrimidin-4-yl)amino)piperidin-1-yl)nicotinonitrile]
–	23.8	714	47.4	0.95	36.6	8.52	204	634	3.92	CC(O)Cn1ccc2cc(Nc3ncc(Cl)c(NC4CCN(c5ccc(C#N)cn5)CC4)n3)cnc21 (centres unmarked) [Example 54, 6-(4-((5-chloro-2-((1-(2-hydroxypropyl)-1H-pyrrolo[2,3-b]pyridin-5-yl)amino)pyrimidin-4-yl)amino)piperidin-1-yl)nicotinonitrile]
9.40	–	–	–	–	–	–	–	–	–	N#Cc1ccc(N2CCC(Nc3nc(Nc4ccc5c(c4)ncn5CC4CC4)ncc3Cl)CC2)nn1 [Example 63, 6-(4-((5-chloro-2-((1-(cyclopropylmethyl)-1H-benzo[d]imidazol-5-yl)amino)pyrimidin-4-yl)amino)piperidin-1-yl)pyridazine-3-carbonitrile]
–	9.33	1830	84.6	0.65	38.6	15.1	115	193	12.9	CN(C)C(=O)c1nc2cc(Nc3ncc(Cl)c(NC4CCN(c5ccc(C#N)cn5)CC4)n3)ccn2n1 [Example 83, 7-((5-chloro-4-((1-(5-cyanopyridin-2-yl)piperidin-4-yl)amino)pyrimidin-2-yl)amino)-N,N-dimethyl-[1,2,4]triazolo[1,5-a]pyridine-2-carboxamide]
–	17.5	1460	32.3	0.688	4.5	4720	0.4	13.2	188	CC(C)(O)c1nc2cc(Nc3ncc(Cl)c(NC4CCN(c5ccc(C#N)nn5)CC4F)n3)ccn2n1 (centres unmarked) [Example 88, 6-(4-((5-chloro-2-((2-(2-hydroxypropan-2-yl)-[1,2,4]triazolo[1,5-a]pyridin-7-yl)amino)pyrimidin-4-yl)amino)-3-fluoropiperidin-1-yl)pyridazine-3-carbonitrile]
